According to patent publication US20090318424A1, “NOVEL COMPOUNDS” (priority 2006, published 2009):
Entries after “also recorded” stand apart in the source; their conditions may differ.

Assays:
[1] = test system: influx of neutrophils to the lung in LPS-challenged rats; experiment: Rat LPS neutrophilia model; assay type: in vivo; conditions: LPS aerosol 100 ug/ml 15 min, lavage 4 hours later; in at least one of the range of conditions tested
Method: The effect of compounds on the influx of neutrophils to the lung in LPS-challenged rats is evaluated as follows. The test compound is suspended in one of the following solutions: 0.5% tween 80/PBS, 0.5% tween 80/saline, 10% EtOH/saline (with pH adjusted to 2.0, or 8.0 with HCl, or unadjusted), Saline @ pH 2.0, 6.5 or 8.0, 0.5% Tragacanth, 1% DMSO/20% Encapsin/Saline, or acidified 5% Tragacanth. The suspension process may be aided by the use of a glass homogenizer. For intratracheal administration, the animals are anesthetized with inhaled isoflurane and placed in a supine position, the trachea is intubated with a steel gavage needle (1.5 inch, 22 gauge, small ball) or a Penn-Century Microsprayer Aerosolizer (model IA-IB) and 200 ul of dosing solution is delivered. The animals are visually monitored during the recovery process, which typically occurs within two minutes.
Rats treated with compound or vehicle (15 min-24 hours pretreatment) are exposed to an LPS aerosol (100 ug/ml) for 15 min. Four hours later the rats are euthanized with pentobarbital (100 mg/kg, i.p.) and the airways are lavaged with 5 washes of 5 ml of phosphate buffered saline. The harvested cells are stained (Diffquick) and counted to determine total and differential cell data. In a typical study, macrophages represent 40-70% of the total cells, and polymorphonuclear cells 30-60% of the total cells. Inhibition of neutrophil levels relative to no compound controls is calculated based on the differential counts.
The assay has varying conditions, such as concentration, pretreat time, form of the compound (crystalline, amorphous, salts, micronised), and a wet or dry application of the compound. The data is obtained as % inhibition using a particular concentration and pretreat time.

[2] = test system: circulating levels of TNFα; conditions: mice; cited from earlier work
[3] = patients with sleep apnea; cited from earlier work
[4] = patients suffering from Psoriasis; seen as early as 4 weeks, persisted for 12 weeks; cited from earlier work
[5] = test system: TGF-β-induced increases in fibronectin and thrombospondin; conditions: cited from earlier work

Compound | melting point | inhibition of neutrophilia [1] | also measured
Cc1ccc(C(=O)Nc2ccc(C)c(-c3nc(OC(C)C)nc4c3CNC(=O)N4c3c(F)cccc3F)c2)cc1F [Example 26, N-(3-{8-(2,6-difluorophenyl)-2-[(1-methylethyl)oxy]-7-oxo-5,6,7,8-tetrahydropyrimido[4,5-d]pyrimidin-4-yl}-4-methylphenyl)-3-fluoro-4-methylbenzamide] | 253.5 to 255.4 °C | inactive | –
CNC(=O)c1ccc(C)c(-c2nc(N3CCC(N4CCCC4)CC3)nc3c2CNC(=O)N3c2c(F)cccc2F)c1 [Example 175, 3-{8-(2,6-difluorophenyl)-7-oxo-2-[4-(1-pyrrolidinyl)-1-piperidinyl]-5,6,7,8-tetrahydropyrimido[4,5-d]pyrimidin-4-yl}-N,4-dimethylbenzamide] | 189 to 194 °C (dec.) | inactive | –
Cc1ccc(C(=O)NCc2ccccc2)cc1-c1nc(NCCCN(C)C)nc2c1CNC(=O)N2c1c(F)cccc1F [Example 151, 3-(8-(2,6-difluorophenyl)-2-{[3-(dimethylamino)propyl]amino}-7-oxo-5,6,7,8-tetrahydropyrimido[4,5-d]pyrimidin-4-yl)-4-methyl-N-(phenylmethyl)benzamide] | 141 to 144 °C | statistically nonsignificant inhibition | –
Cc1ccc(NC(=O)c2ccsc2)cc1-c1nc(N2CCC(N)CC2)nc2c1CNC(=O)N2c1c(F)cccc1F [Example 11, N-{3-[2-(4-amino-1-piperidinyl)-8-(2,6-difluorophenyl)-7-oxo-5,6,7,8-tetrahydropyrimido[4,5-d]pyrimidin-4-yl]-4-methylphenyl}-3-thiophenecarboxamide] | 250 to 261 °C (dec.) | statistically significant inhibition | –
CC(NC(C)(C)C)C(=O)c1cccc(Cl)c1 (stereo not drawn) [bupropion] | – | – | circulating levels of TNFα [2]: reduce circulating levels of TNFα
CNC(=O)c1ccc(C)c(-c2nc(NCCCN(C)C)nc3c2CNC(=O)N3c2c(F)cccc2F)c1 [Example 166, 3-(8-(2,6-difluorophenyl)-2-{[3-(dimethylamino)propyl]amino}-7-oxo-5,6,7,8-tetrahydropyrimido[4,5-d]pyrimidin-4-yl)-N,4-dimethylbenzamide] | 164 to 167 °C (dec.) | statistically nonsignificant inhibition | –
etanercept | – | – | sleepiness [3]: decreases in sleepiness; symptoms of depression (HAMD and BDI score) and fatigue [4]: demonstrated efficacy; also recorded: reduce symptoms of depression
CNC(=O)c1ccc(C)c(-c2nc(N3CCC(N4CCCCC4)CC3)nc3c2CNC(=O)N3c2c(F)cccc2F)c1 [Example 176, 3-[2-(1,4′-bipiperidin-1′-yl)-8-(2,6-difluorophenyl)-7-oxo-5,6,7,8-tetrahydropyrimido[4,5-d]pyrimidin-4-yl]-N,4-dimethylbenzamide] | 179 to 184 °C (dec.) | statistically nonsignificant inhibition | –
CCN(CC)CCCNc1nc(-c2cc(C(=O)NC)ccc2C)c2c(n1)N(c1c(F)cccc1F)C(=O)NC2 [Example 172, 3-[2-{[3-(diethylamino)propyl]amino}-8-(2,6-difluorophenyl)-7-oxo-5,6,7,8-tetrahydropyrimido[4,5-d]pyrimidin-4-yl]-N,4-dimethylbenzamide] | 133 to 136 °C | statistically nonsignificant inhibition | –
Cc1ccc(C(=O)Nc2ccc(C)c(-c3nc(N(C)C)nc4c3CNC(=O)N4c3c(F)cccc3F)c2)cc1F [Example 28, N-{3-[8-(2,6-difluorophenyl)-2-(dimethylamino)-7-oxo-5,6,7,8-tetrahydropyrimido[4,5-d]pyrimidin-4-yl]-4-methylphenyl}-3-fluoro-4-methylbenzamide] | 257.8 to 264.3 °C | statistically nonsignificant inhibition | –
CNC(=O)c1ccc(C)c(-c2nc(N(C)CCCN(C)C)nc3c2CNC(=O)N3c2c(F)cccc2F)c1 [Example 174, 3-{8-(2,6-difluorophenyl)-2-[[3-(dimethylamino)propyl](methyl)amino]-7-oxo-5,6,7,8-tetrahydropyrimido[4,5-d]pyrimidin-4-yl}-N,4-dimethylbenzamide] | 163 to 165 °C | inactive | –
COc1nccc(-c2c(-c3ccc(F)cc3)ncn2C2CCNCC2)n1 [SB-242235] | – | – | TGF-β-induced increases in fibronectin and thrombospondin [5]: inhibited
Cc1ccc(C(=O)NCc2ccccc2)cc1-c1nc(N(C)CCCN(C)C)nc2c1CNC(=O)N2c1c(F)cccc1F [Example 17, 3-{8-(2,6-Difluorophenyl)-2-[[3-(dimethylamino)propyl](methyl)amino]-7-oxo-5,6,7,8-tetrahydropyrimido[4,5-d]pyrimidin-4-yl}-4-methyl-N-(phenylmethyl)benzamide] | 124 to 127 °C | statistically nonsignificant inhibition | –
Cc1ccc(C(=O)NCc2ccccc2)cc1-c1nc(N2CCN(C)CC2)nc2c1CNC(=O)N2c1c(F)cccc1F [Example 148, 3-[8-(2,6-difluorophenyl)-2-(4-methyl-1-piperazinyl)-7-oxo-5,6,7,8-tetrahydropyrimido[4,5-d]pyrimidin-4-yl]-4-methyl-N-(phenylmethyl)benzamide] | 164 to 168 °C | statistically nonsignificant inhibition | –
Cc1ccc(C(=O)Nc2ccc(C)c(-c3nc(NC4CC(C)(C)NC(C)(C)C4)nc4c3CNC(=O)N4c3c(F)cccc3F)c2)cc1F [23(e), N-(3-{8-(2,6-difluorophenyl)-7-oxo-2-[(2,2,6,6-tetramethyl-4-piperidinyl)amino]-5,6,7,8-tetrahydropyrimido[4,5-d]pyrimidin-4-yl}-4-methylphenyl)-3-fluoro-4-methylbenzamide] | 220 °C (dec.) | statistically nonsignificant inhibition | –
Cc1ccc(C(=O)Nc2ccc(C)c(-c3nc(N4CCC(N)CC4)nc4c3CNC(=O)N4c3c(F)cccc3F)c2)cc1F [Example 24, N-{3-[2-(4-amino-1-piperidinyl)-8-(2,6-difluorophenyl)-7-oxo-5,6,7,8-tetrahydropyrimido[4,5-d]pyrimidin-4-yl]-4-methylphenyl}-3-fluoro-4-methylbenzamide] | 240 °C | statistically nonsignificant inhibition | –
